According to patent US20180360924A1, “TELOMERE EXTENSION AND ANTI-INFLAMMATORY AGENTS FOR CELL REGENERATION” (THE METHODIST HOSPITAL SYSTEM, priority 2015, published 2018):

System: Human chondrocytes
Test: Telomere length in chondrocytes, relative quantification for the telomeric repeat (T/S-ratio)
Type: cell-based
Conditions: LFA transfection, n=3, P65i high

RelA/NFkB p65 [pSer529, pSer536] inhibitor peptide [P65i]
% increase in TL: 4.0%
T/S-ratio: 1.01
